Source: PubChem BioAssay (NCI)
Several values for one entry are separate records, joined by “and”; a condition that tells them apart may be missing. Equal entries are not always repeated.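 Cells were grown in 96-well plates and exposed to each compound for 48 hours at five concentrations; endpoints were interpolated linearly between bracketing concentrations, or set to the highest concentration if not reached. Abbreviation: GI50, concentration required for 50% inhibition of growth. TGI: concentration producing complete growth inhibition.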

Legend:
Assay in all cases: DTP human tumour cell line panel, 48 h
HT29 colon = tested on: HT29 colon
NCI-H522 lung = tested on: NCI-H522 lung
SK-MEL-2 melanoma = tested on: SK-MEL-2 melanoma
SK-OV-3 ovarian = tested on: SK-OV-3 ovarian
CCRF-CEM leukemia = tested on: CCRF-CEM leukemia
MALME-3M melanoma = tested on: MALME-3M melanoma
IGROV1 ovarian = tested on: IGROV1 ovarian
NCI-H460 lung = tested on: NCI-H460 lung
SNB-75 CNS = tested on: SNB-75 CNS
SNB-19 CNS = tested on: SNB-19 CNS

SMILES	GI50 (HT29 colon)	TGI (HT29 colon)	TGI (NCI-H522 lung)	GI50 (SK-MEL-2 melanoma)	TGI (SK-MEL-2 melanoma)	TGI (SK-OV-3 ovarian)	GI50 (CCRF-CEM leukemia)	TGI (CCRF-CEM leukemia)	TGI (MALME-3M melanoma)	TGI (IGROV1 ovarian)	TGI (NCI-H460 lung)	TGI (SNB-75 CNS)	TGI (SNB-19 CNS)	GI50 (NCI-H522 lung)	GI50 (SNB-75 CNS)	GI50 (MALME-3M melanoma)	GI50 (IGROV1 ovarian)	GI50 (NCI-H460 lung)	GI50 (SNB-19 CNS)	GI50 (SK-OV-3 ovarian)
CN(C)C1C(=O)C(C(N)=O)=C(O)C2(O)C(=O)C3=C(O)c4c(O)cccc4C(C)(O)C3CC12 (configuration not stated)	27.2 µM and > 100 µM	67.9 µM and > 100 µM	> 100 µM	73 µM and 28 µM	> 100 µM and 91.8 µM	> 100 µM	22.8 µM and 67.5 µM	57.1 µM and > 100 µM	> 100 µM	> 100 µM	> 100 µM	–	–	–	–	–	–	–	–	–
CCN(CC)/[N+]([O-])=N/OCC(C)O (configuration not stated)	–	> 100 µM	> 100 µM	–	> 100 µM	> 100 µM	–	> 100 µM	–	> 100 µM	> 100 µM	> 100 µM	> 100 µM	–	–	–	–	–	–	–
Cc1ccc2c(c1)-c1oc(=O)c(-c3cc4ccccc4oc3=O)cc1C(O)O2 (configuration not stated)	40.8 µM	> 100 µM	48.1 µM	16.9 µM	42.1 µM	–	42.2 µM	> 100 µM	28.2 µM	52.1 µM	> 100 µM	47 µM	71 µM	19.4 µM	15.6 µM	10.2 µM	17.4 µM	22.3 µM	22.6 µM	–
Fc1ccc2c(c1)cc1ccc3cccc4ccc2c1c34	–	> 100 µM	> 100 µM	–	> 100 µM	> 100 µM	–	> 100 µM	> 100 µM	> 100 µM	–	> 100 µM	> 100 µM	–	–	–	–	–	–	–
CC1=CC2=C(C#N)C(=O)OC2(C)C(c2ccccc2)C1 (configuration not stated)	–	> 100 µM	> 100 µM	–	> 100 µM	> 100 µM	–	–	> 100 µM	> 100 µM	> 100 µM	> 100 µM	> 100 µM	–	–	–	–	–	–	–
CCN(CC)CCOc1ccc(Cc2ccccc2)cc1	12.3 µM	33.9 µM	> 100 µM	13.9 µM	50.5 µM	> 100 µM	–	–	43.1 µM	74.6 µM	62.1 µM	94.9 µM	> 100 µM	18.4 µM	19 µM	17.2 µM	24 µM	22.9 µM	68.7 µM	44 µM
O=C(Nc1ccc(N2CCNCC2)cn1)c1[nH]ncc1Nc1ncnc2sccc12	1.91 µM	3.97 µM	4.36 µM	7.72 µM	25.9 µM	25.7 µM	1.25 µM	6.97 µM	3.19 µM	24.6 µM	3.57 µM	21.2 µM	–	1.87 µM	4.89 µM	1.43 µM	4.27 µM	1.73 µM	–	10.6 µM
CC(=O)Oc1cc(Cl)c(OC(C)=O)c2c(OC(C)=O)c(C)c(O[Si](C)(C)C(C)(C)C)cc12	–	–	19 µM	–	42.6 µM	–	–	13.5 µM	–	12.5 µM	16.5 µM	–	25.7 µM	–	–	–	–	–	–	–
Nc1nc(CC2(O)CCCCC2)cc(-c2ccccc2)n1	–	> 49.2 µM	> 100 µM	–	> 64.8 µM	> 100 µM	–	> 95.9 µM	–	> 100 µM	> 66 µM	98.1 µM	> 100 µM	–	–	–	–	–	–	–
